Assay results as given in article PMC5700124 (Scientific Reports, 2017).
Several values for one entry are separate records, joined by “and”; a condition that tells them apart may be missing. Equal values may be shown once. Read-outs that look alike come from different tables or passages of the source.

Tests used:
α2 adrenoceptor [1] = biological target: α2 adrenoceptor; parameters: method as in Rout et al.[32]; conditions: cortex, pH 7.0, 25.0 °C, blocking of NS noradrenaline 100 μM, ref Rout et al.[32], cited from earlier work
α2 adrenoceptor [2] = conditions: cerebral cortex, pH 7.4, 25.0 °C, mg^2+ 0, blocking of NS phentolamine 10 μM, cited from earlier work
α2 adrenoceptor [3] = conditions: parieto-occipital cortex, pH 7.5, 25.0 °C, mg^2+ 1 mM, blocking of NS adrenaline 10 μM, cited from earlier work
α2 adrenoceptors [4] = test system: α2 adrenoceptors; parameters: method as in Jakobsen and colleagues[14]; conditions: porcine brain; low dose 0.15 mg/kg vs 0.7 mg/kg; ref Jakobsen and colleagues[14]; cited from earlier work
[5] = parameters: method as in Jakobsen et al.[14]; conditions: pigs; challenge, compared with yohimbine; ref Jakobsen et al.[14]; cited from earlier work
[6] = test system: [^11C]mirtazepin binding in porcine brain; parameters: method as in Smith et al.[34]; conditions: ref Smith et al.[34], cited from earlier work
α2 adrenoceptor subtypes = test system: α2 adrenoceptor subtypes; parameters: method as in PMID 7908054; conditions: cited from earlier work
α2 adrenoceptors [7] = experiment: Eadie-Hofstee Plot of PET binding potentials (receptor density Bmax and KD in vivo); parameters: species or system rat
From the text: The values of BPND enabled us to determine the α2 adrenoceptor density in vivo. As presented in Fig. 4A, we estimated values of receptor density, Bmax, and receptor affinity (1/KD) by means of Eadie-Hofstee plots. We calculated the bound quantity according to eq. 2, based on the information of the BPND and specific activity. We found the greatest receptor densities in thalamus, caudate putamen, and cortical areas, with the lowest densities in cerebellum and olfactory bulb as presented in Fig. 4B. The regional receptor densities are listed in detail in Table 2 and specific activity in Table 3.
We derived the present method from well-known principles of kinetics. We identified the following six steps to the determination of binding parameters of radioligands that achieve receptor occupancy. […] The variable B is the bound quantity of the ligand, and BPND is the binding potential of the radioligand at the specific degree of occupancy. To solve the equation of the Eadie-Hofstee plot for the two parameters, it is necessary to know the bound quantities of the ligand and the binding potentials in at least two conditions of different occupancy. The bound quantity is related to the binding potential by the relationship,2 B=M(BPND/1+BPND), where M is the total mass of the ligand per unit volume of brain tissue, calculated from the known specific activity of the radioligand.
The sixth and final step was the graphical solution to the Eadie-Hofstee Plot of eq. (1) (Eadie 1952, Hofstee 1952), where B is the bound quantity and BPND is the binding potential of ligands. We calculated the bound quantity from the relationship described by eq. 2.

plasma proteins = conditions: in the circulation; cited from earlier work
α2 adrenoceptors [8] = conditions: cited from earlier work
α2 adrenoceptors [9] = experiment: PET of [^11C]yohimbine binding in rat brain at baseline and at challenge with unlabeled yohimbine; conditions: for Volumes of Distribution, VT, BASE: baseline; for Volumes of Distribution, VT, BASE / Volumes of Distribution, VT, COLD: individual rats 1-5; for Volumes of Distribution, VT, COLD: challenge with unlabeled yohimbine 0.3 mg/kg i.v.

## COC(=O)[C@@H]1[C@H]2C[C@H]3c4[nH]c5ccccc5c4CCN3C[C@@H]2CC[C@@H]1O [[^3H]yohimbine]
α2 adrenoceptor [1]; mg^2+ 0 mM
  Kd: […]
α2 adrenoceptor [1]; mg^2+ 10 mM
  Kd: […]
α2 adrenoceptor [2]; ref Brown et al.[44]
  Kd: 5.2 nM
α2 adrenoceptor [2]; ref Brown et al.[45]
  Kd: 5.3 nM

## COC1(C2=NCCN2)COc2ccccc2O1 (stereo not shown) [[^3H]RX821002]
α2 adrenoceptor [3]; ref Ribas et al.[7]
  Kd: 0.57 nM
α2 adrenoceptor [3]; ref Ribas et al.[68]
  Kd: 0.5 nM

## COC1(C2=NCCN2)COc2ccccc2O1 (stereo not shown) [RX821002]
α2 adrenoceptors [4]
  decline of VT of [^11C]yohimbine: greater decline of the value of VT than the higher dose of 0.7 mg/kg
[5]
  effect on CBF: opposite effect
[6]; 0.1 mg/kg
  reduction of [^11C]mirtazepin binding: 35%
[6]; 1 mg/kg
  reduction of [^11C]mirtazepin binding: failed to inhibit the binding further
α2 adrenoceptor subtypes
  affinity to α2 adrenoceptor subtypes: higher affinity to α2A and α2C than to α2B

## [11CH3]OC(=O)[C@@H]1[C@H]2C[C@H]3c4[nH]c5ccccc5c4CCN3C[C@@H]2CC[C@@H]1O [[^11C]yohimbine]
Plasma proteins
  fraction bound to plasma proteins: 82%
α2 adrenoceptors [8]; data from two rats
  radioactive metabolites in plasma: no radioactive metabolites
α2 adrenoceptors [9]; CEREB cerebellum
  Volumes of Distribution, VT, BASE: […]
  Volumes of Distribution, VT, COLD: […]
α2 adrenoceptors [9]; CP caudate putamen
  Volumes of Distribution, VT, BASE: […]
  Volumes of Distribution, VT, COLD: […]
α2 adrenoceptors [9]; HIPP hippocampus
  Volumes of Distribution, VT, BASE: […]
  Volumes of Distribution, VT, COLD: […]
α2 adrenoceptors [9]; HYP hypothalamus
  Volumes of Distribution, VT, BASE: […]
  Volumes of Distribution, VT, COLD: […]
α2 adrenoceptors [9]; MC motor cortex
  Volumes of Distribution, VT, BASE: […]
  Volumes of Distribution, VT, COLD: […]
α2 adrenoceptors [9]; OLF olfactory bulb
  Volumes of Distribution, VT, BASE: […]
  Volumes of Distribution, VT, COLD: […]
α2 adrenoceptors [9]; PFC prefrontal cortex
  Volumes of Distribution, VT, BASE: […]
  Volumes of Distribution, VT, COLD: […]
α2 adrenoceptors [9]; SSC somatosensory cortex
  Volumes of Distribution, VT, BASE: […]
  Volumes of Distribution, VT, COLD: […]
α2 adrenoceptors [9]; THAL thalamus
  Volumes of Distribution, VT, BASE: […]
  Volumes of Distribution, VT, COLD: […]
α2 adrenoceptors [9]; cerebellum
  time of peak uptake post-injection: […]
α2 adrenoceptors [9]; corresponding to K1 for a vascular volume of 0.02 ml/cm^3
  rate of escape: […]
α2 adrenoceptors [9]; other brain regions
  time of peak accumulation post-injection: […]

## CC(N)Cc1ccccc1 (stereo not shown) [amphetamine]
α2 adrenoceptors [8]; amphetamine 2 mg/kg challenge
  change of VND(b) and fP of [^11C]yohimbine: did not change
